In patent US20220380357A1, “TETRAHYDROISOQUINOLINE COMPOUNDS” (ALLINKY BIOPHARMA, priority 2019, published 2022):
Like-named read-outs stand apart in the source and are kept apart here.

Experiments:
Assay type in all cases: cell-based
[1] = test system: H358. non-small cell lung cancer line bearing KRas^G12C oncogenic mutation; test: Antiproliferative MTS assay, H358 cells; conditions: compounds 1-23, 47-52 and Reference Example 1 median of experiments, 24-46 estimations and/or preliminary results, read-out: IC50 values: cell proliferation inhibition, H358
Method: Cell line #2: H358. non-small cell lung cancer line bearing KRas^G12C oncogenic mutation
(§1) Cell lines were cultured in DMEM or RPMI-1640 supplemented with FBS 10%. In order to assess the antiproliferative effect of compounds, cells were seeded at a density of 1.8×10^3, 6.2×10^3, 7.8×10^3, 21×10^3 and 2×10^3 cells/cm^2, respectively, in tissue culture microplates and were incubated in humidified atmosphere at 5% CO2. 24 h later, compounds dissolved in DMSO 100% were added for different final concentrations ranging between 0.1 and 50 μM for a final DMSO concentration of 0.5% and the plates were incubated for another 72 h. After incubation, proliferation was quantified using CellTiter 96® Aqueous Non-Radioactive Cell Proliferation Assay-MTS (Promega #G5421) following manufacturer instructions. Amount of 490 nm absorbance is directly proportional to the number of living cells. Absorbance was recorded with a BMG Fluostar Optima Microplate Reader and normalized to control with vehicle.

[2] = test system: PANC-1. epithelioid carcinoma of the pancreas cell line bearing KRas^G12D oncogenic mutation; test: Antiproliferative MTS assay, PANC-1 cells; conditions: compounds 1-23 and 47-52 median of experiments, 24-46 estimations and/or preliminary results, read-out: IC50 values: cell proliferation inhibition, Panc-1
Method: Cell line #3: PANC-1. epithelioid carcinoma of the pancreas cell line bearing KRas^G12D oncogenic mutation
as §1

[3] = test system: A549. Lung carcinoma cell line bearing KRas^G12S oncogenic mutation; test: Antiproliferative MTS assay, A549 cells; conditions: compounds 1-23 and 47-52 median of experiments, 24-46 estimations and/or preliminary results, read-out: IC50 values: cell proliferation inhibition, A549
Method: Cell line #1: A549. Lung carcinoma cell line bearing KRas^G12S oncogenic mutation
as §1

[4] = test system: RPMI. myeloma cell line bearing KRas^G12A oncogenic mutation; test: Antiproliferative MTS assay, RPMI cells; conditions: 72 h, compounds 1-23 and 47-52 median of experiments, 24-46 estimations and/or preliminary results, read-out: IC50 values: cell proliferation inhibition, RPMI
Method: Cell line #4: RPMI. myeloma cell line bearing KRas^G12A oncogenic mutation
as §1

Row | IC50 ([1]; Homo sapiens, NCI-H358, 72 h) [nM] | IC50 ([2]; Homo sapiens, PANC-1, 72 h) [nM] | IC50 ([3]; Homo sapiens, A549, 72 h) [nM] | IC50 [4] [nM] | IC50 ([1]; 72 h) [nM] | IC50 ([2]; 72 h) [nM] | IC50 ([3]; 72 h) [nM] | Structure (SMILES)
1 | 500 | 300 | 1500 | 500 | – | – | – | COc1ccc(CCOc2cc3c(cc2OC)CCN(C(=O)NCc2ccon2)C3c2ccc(C)cc2C)cc1N (stereo not drawn) [Compound 19]
2 | 200 | 200 | 1000 | 100 | – | – | – | COc1ccc(CCOc2cc3c(cc2OC)CCN(C(=O)NCC(F)(F)F)C3c2ccc(C)cc2C)cc1N (stereo not drawn) [Compound 24]
3 | 400 | 500 | 1000 | 200 | – | – | – | COc1ccc(C2c3cc(OCCc4ccc(OC)c(N)c4)c(OC)cc3CCN2C(=O)NCC(F)(F)F)c(C)c1 (stereo not drawn) [Compound 26]
4 | 300 | 200 | 1000 | 100 | – | – | – | COc1ccc(C2c3cc(OCCc4ccc(OC)c(N)c4)c(OC)cc3CCN2C(=O)NCc2cocn2)c(C)c1 (stereo not drawn) [Compound 16]
5 | 800 | 600 | > 2000 | 700 | – | – | – | COc1cc(CCOc2cc3c(cc2OC)CCN(C(=O)NCc2cocn2)C3c2ccc(C)cc2C)ccc1N (stereo not drawn) [Compound 33]
6 | 600 | 600 | > 2000 | 300 | – | – | – | COc1cc(CCOc2cc3c(cc2OC)CCN(C(=O)NCc2ccon2)C3c2ccc(C(F)(F)F)cc2C)ccc1N (stereo not drawn) [Compound 39]
7 | 300 | 300 | 1000 | 100 | – | – | – | COc1cc(CCOc2cc3c(cc2OC)CCN(C(=O)NCc2ccon2)C3c2ccc(Cl)cc2C)ccc1N (stereo not drawn) [Compound 42]
8 | 300 | 200 | 1000 | 100 | – | – | – | COc1cc(CCOc2cc3c(cc2OC)CCN(C(=O)NCC(F)(F)F)C3c2ccc(C)cc2C)ccc1N (stereo not drawn) [Compound 43]
9 | 500 | 400 | 1500 | 200 | – | – | – | CCNC(=O)N1CCc2cc(OC)c(OCCc3ccc(N)c(OC)c3)cc2C1c1ccc(C(F)(F)F)cc1C (stereo not drawn) [Compound 29]
10 | 100 | 100 | 700 | 100 | – | – | – | COc1ccc(CCOc2cc3c(cc2OC)CCN(C(=O)NCc2ccon2)C3c2ccc(Cl)cc2C)cc1N (stereo not drawn) [Compound 23]
11 | 800 | 500 | > 2000 | 300 | – | – | – | COc1cc(CCOc2cc3c(cc2OC)CCN(C(=O)NCC(F)(F)F)C3c2ccc(C(F)(F)F)cc2C)ccc1N (stereo not drawn) [Compound 44]
12 | 500 | 400 | 1200 | 100 | – | – | – | COc1cc(CCOc2cc3c(cc2OC)CCN(C(=O)NCc2cocn2)C3c2ccc(C(F)(F)F)cc2C)ccc1N (stereo not drawn) [Compound 34]
13 | 400 | 400 | 1500 | 100 | – | – | – | COc1cc(CCOc2cc3c(cc2OC)CCN(C(=O)NCc2cocn2)C3c2ccc(Cl)cc2C)ccc1N (stereo not drawn) [Compound 37]
14 | 400 | 500 | 1000 | 300 | – | – | – | CCNC(=O)N1CCc2cc(OC)c(OCCc3ccc(N)c(OC)c3)cc2C1c1ccc(OC)cc1C (stereo not drawn) [Compound 30]
15 | 700 | 600 | > 2000 | 500 | – | – | – | COc1ccc(CCOc2cc3c(cc2OC)CCN(C(=O)NCc2ccon2)C3c2ccc(F)cc2C)cc1N (stereo not drawn) [Compound 22]
16 | 900 | 700 | 1700 | 500 | – | – | – | COc1cc(CCOc2cc3c(cc2OC)CCN(C(=O)NCc2cocn2)C3c2ccc(F)cc2C)ccc1N (stereo not drawn) [Compound 36]
17 | 900 | 700 | > 2000 | 900 | – | – | – | COc1cc(CCOc2cc3c(cc2OC)CCN(C(=O)NCc2ccon2)C3c2ccc(F)cc2C)ccc1N (stereo not drawn) [Compound 41]
18 | 400 | 400 | 1000 | 300 | – | – | – | COc1ccc(C2c3cc(OCCc4ccc(N)c(OC)c4)c(OC)cc3CCN2C(=O)NCc2cocn2)c(C)c1 (stereo not drawn) [Compound 35]

Row | IC50 ([1]; Homo sapiens, NCI-H358, 72 h) [nM] | IC50 ([2]; Homo sapiens, PANC-1, 72 h) [nM] | IC50 ([3]; Homo sapiens, A549, 72 h) [nM] | IC50 [4] [nM] | IC50 ([1]; 72 h) [nM] | IC50 ([2]; 72 h) [nM] | IC50 ([3]; 72 h) [nM] | Structure (SMILES)
19 | 500 | 400 | 1000 | 200 | – | – | – | COc1ccc(CCOc2cc3c(cc2OC)CCN(C(=O)NCc2cocn2)C3c2ccc(F)cc2C)cc1N (stereo not drawn) [Compound 17]
20 | 200 | 200 | 900 | 100 | – | – | – | COc1ccc(C2c3cc(OCCc4ccc(OC)c(N)c4)c(OC)cc3CCN2C(=O)NCc2ccon2)c(C)c1 (stereo not drawn) [Compound 21]
21 | 300 | 200 | 1000 | 100 | – | – | – | COc1ccc(CCOc2cc3c(cc2OC)CCN(C(=O)NCc2cocn2)C3c2ccc(Cl)cc2C)cc1N (stereo not drawn) [Compound 18]
22 | 500 | 400 | 1500 | 200 | – | – | – | COc1cc(CCOc2cc3c(cc2OC)CCN(C(=O)NCc2ccon2)C3c2ccc(C)cc2C)ccc1N (stereo not drawn) [Compound 38]
23 | 400 | 400 | 1000 | 200 | – | – | – | COc1ccc(CCOc2cc3c(cc2OC)CCN(C(=O)NCc2ccon2)C3c2ccc(C(F)(F)F)cc2C)cc1N (stereo not drawn) [Compound 20]
24 | 600 | 500 | > 2000 | 300 | – | – | – | COc1ccc(CCOc2cc3c(cc2OC)CCN(C(=O)NCC(F)(F)F)C3c2ccc(C(F)(F)F)cc2C)cc1N (stereo not drawn) [Compound 25]
25 | – | – | – | 100 | 300 | 200 | 1000 | CCNC(=O)N1CCc2cc(OC)c(OCCc3ccc(N)c(OC)c3)cc2C1c1ccc(Cl)cc1C (stereo not drawn) [Compound 32]
26 | 300 | – | – | – | – | – | – | CCNC(=O)N1CCc2cc(OC)c(OCCc3ccc(OC)c(N)c3)cc2C1c1ccc(C(=O)OC)cc1C (stereo not drawn) [Reference Example 1, reference compound]
27 | 300 | 300 | 1000 | 100 | – | – | – | COc1ccc(C2c3cc(OCCc4ccc(N)c(OC)c4)c(OC)cc3CCN2C(=O)NCc2ccon2)c(C)c1 (stereo not drawn) [Compound 40]
28 | 600 | 300 | 1000 | 200 | – | – | – | COc1ccc(C2c3cc(OCCc4ccc(N)c(OC)c4)c(OC)cc3CCN2C(=O)NCC(F)(F)F)c(C)c1 (stereo not drawn) [Compound 45]
29 | 200 | 100 | 900 | 100 | – | – | – | CCNC(=O)N1CCc2cc(OC)c(OCCc3ccc(OC)c(N)c3)cc2C1c1ccc(F)cc1C (stereo not drawn) [Compound 12]
30 | – | – | 1600 | 400 | 700 | 500 | – | CCNC(=O)N1CCc2cc(OC)c(OCCc3ccc(N)c(OC)c3)cc2C1c1ccc(Cl)cc1C (stereo not drawn) [Compound 14]
31 | > 800 | 1500 | > 2000 | > 1000 | – | – | – | COc1cc2c(cc1OCCc1ccc(OC)c([N+](=O)[O-])c1)C(c1ccc(C)cc1C)N(C(=O)NCc1cocn1)CC2 (stereo not drawn) [Compound 49]
32 | 300 | 200 | 800 | 100 | – | – | – | COc1ccc(CCOc2cc3c(cc2OC)CCN(C(=O)NCC(F)(F)F)C3c2ccc(Cl)cc2C)cc1N (stereo not drawn) [Compound 28]
33 | 500 | 300 | 1000 | 100 | – | – | – | COc1cc(CCOc2cc3c(cc2OC)CCN(C(=O)NCC(F)(F)F)C3c2ccc(F)cc2C)ccc1N (stereo not drawn) [Compound 46]
34 | 300 | 300 | 900 | 100 | – | – | – | COc1ccc(CCOc2cc3c(cc2OC)CCN(C(=O)NCC(F)(F)F)C3c2ccc(F)cc2C)cc1N (stereo not drawn) [Compound 27]
35 | 300 | 300 | 1000 | 100 | – | – | – | COc1ccc(CCOc2cc3c(cc2OC)CCN(C(=O)NCc2cocn2)C3c2ccc(C(F)(F)F)cc2C)cc1N (stereo not drawn) [Compound 15]
36 | 500 | 400 | > 2000 | 100 | – | – | – | CCNC(=O)N1CCc2cc(OC)c(OCCc3ccc(N)c(OC)c3)cc2C1c1ccc(F)cc1C (stereo not drawn) [Compound 31]
